A word on the pIC50: it is −log10 of the IC50, conventionally taken in molar units. As usually defined, the GI50 is the concentration giving 50% growth inhibition. Read a high GI50 as less potent growth inhibition.

Results on 2 molecules are retold here after patent US9115122B2, “Non-ATP dependent inhibitors of extracellular signal-regulated kinase (ERK)” (UNIVERSITY OF MARYLAND, BALTIMORE, priority 2012, dated 2015).

pIC50: −log10 of the molar value.

One test concerns the target ERK2 (Rattus norvegicus (Rat), UniProt P63086). The test is described as follows: Binding of DRS compound to ERK2 (FIG. 10).
Test [1] relates to A375 melanoma cells. The test is described as follows: Proliferation of A375 melanoma cells (Example 3). The format is cell-based. The source says: We examined the effects of these compounds on proliferation of A375 melanoma cells with BRaf mutations that require ERK activation for survival.
Moreover, 76.3 and TMZ also appeared to delay tumor growth in mice harboring A375 tumors indicative of prolonged survival (FIG. 13B).

In test [2] the test system is c-Fos, Fra1, and FosB expression. The test is described as follows: Immunoblot of EGF-induced c-Fos, Fra1 and FosB expression in HeLa cells. It counts as cell-based. The settings on record: EGF 25 ng/mL. The procedure:
FIG. 3. EGF-mediated induction of AP-1 proteins is inhibited by SF-3-026 and SF-3-030. (a) HeLa cells were treated for 10, 30, or 60 min. with EGF (25 ng/mL) in the presence of 50 μM SF-3-026 or 10 μM U0126. Protein lysates were immunoblotted for c-Fos, Fra1, FosB and FosB2. Phosphorylated ERK1/2 is not affected by SF-3-026 and α-tubulin expression is shown for a protein loading control. (b) Protein lysates from HeLa cells treated for 30 min. with EGF in the absence or presence of 10, 25, 50, or 100 μM of SF-3-026 or SF-3-030 were immunoblotted for c-Fos, Fra1, FosB, FosB2, as well as phosphorylated ERK1/2 and MEK1/2. Total ERK2 and α-tubulin expression are shown for protein loading controls. Data are representative of three independent experiments.
Analysis of protein expression levels, activity, and cell proliferation were done as previously described. […] Proteins were separated by SDS-PAGE, analyzed by immunoblotting, and detected using enhanced chemiluminescence (ECL, GE Healthcare, United Kingdom).
The reported half-life for c-Fos is ˜10 minutes and growth factor-mediated stabilization of c-Fos protein expression can be observed within 30-60 minutes, whereas stabilization of Fra1 protein is delayed due to AP-1 regulation of the Fra1 promoter. Thus, growth factor-mediated induction of c-Fos, Fra1, and FosB expression was evaluated following treatment with SF-3-026. […]
A general note: In western blotting, separated proteins are transferred to a membrane and probed.

The next test concerns AP-1 promoter. The test is described as follows: AP-1 promoter luciferase assay, EGF-stimulated HeLa cells (Example 1). The format is cell-based. The settings on record: Homo sapiens, EGF stimulation, 4 hours, read-out: IC50 inhibition of the AP-1 promoter. The procedure:
FIG. 4. Compound SF-3-026 and analogs inhibit SRE and AP-1 transcription factor function. (a) HeLa cells were transfected with constructs containing SRE or AP-1 promoters driving luciferase expression and then stimulated with EGF in the presence or absence of SF-3-026 for 4 hours followed by measurements of luciferase activity. Cells treated with U0126 were used as a positive inhibitor control. (b and c) HeLa cells were prepared and treated as in (a) with the indicated concentrations of SF-3-026 or analogs for 4 hours followed by the measurement of luciferase activity regulated by the SRE (b) or AP-1 (c) promoters. Data in (b and c) were normalized to EGF-only treatment and represent the mean and standard deviation from three independent experiments. (d) Compound SF-3-026 and analogs inhibit MEK1-induced AP-1 transcription factor function. […]
HeLa cells were seeded in 24-well plates (40,000 cells/well) and incubated 18 hours to achieve ˜60-70% confluent. […] The luciferase activity in the cell extracts was determined with a Dual Luciferase Assay System (Promega) according to the manufacturer's instructions. Luciferase activities were monitored with a Lumat LB 9507 luminometer (Berthold Technology) and data were normalized to the amount of protein in each sample. […]

For the next test, the system named is HeLa cells. Nature of the test: Caspase 3/7 Glo Assay. The format is cell-based. The conditions noted are these: varying doses. The procedure: (§1) Cells were seeded at 25,000 cells/well in 96-well plate and cultured overnight. Cells were treated for 24 hours with various concentrations of compounds and cell viability or caspase 3/7 activity were measured according to manufacturer's instructions using the fluorescent Cell Titer Blue Assay (Promega) or luminescent Caspase 3/7 Glo Assay (Promega).
(§2) To test whether the inhibition of cell proliferation was due to an apoptotic response, A375 and HeLa cells were treated with varying doses of SF-3-030 and cell viability along with caspase 3/7 activity was measured.

The next test deals with RPMI7951 melanoma cells. The test is described as follows: Cell proliferation, fluorescent Cell Titer Blue Assay (Example 1). It counts as cell-based. The conditions noted are these: Homo sapiens, RPMI-7951; 48 hours. The procedure: (§3) FIG. 5. Dose dependent inhibition of cancer cell proliferation in vitro by SF-3-026 and analogs. A375 (closes circles), RPM17951 (closed squares), HeLa (open circles), or Jurkat (open squares) cells were treated for 48 hours with indicated concentration of (a) SF-3-026, (b) SF-2-027, (c) SF-2-029, or (d) SF-2-030 and cell proliferation was assessed by the fluorescent Cell Titer Blue Assay. The data were reproduced in 3 separate experiments.
as §1
(§4) It was next determined whether inhibition of AP-1 proteins by SF-3-026 and analogs affected the proliferation of cancer cells driven by mutations that constitutively activate the ERK1/2 pathway. For these experiments, A375 and RPMI7951 melanoma cells, which have a valine to glutamate mutation on residue 600 in BRaf that causes constitutive ERK1/2 activation, were chosen. Moreover, RPMI7951 cells are resistant to clinically used BRaf inhibitors due to overexpression of MAP3K8 (the gene encoding COT/Tp12) that re-activates ERK1/2 signaling. Both melanoma cells lines were treated with varying doses of SF-3-026 or analogs and cell viability was compared to HeLa cervical carcinoma and Jurkat T-cell leukemia cells, which are p53 defective but contain no known activating mutations in the ERK1/2 pathway.
On the technique in general: Resazurin is reduced to fluorescent resorufin, in cell work by metabolically active cells.

Test [3] relates to A375 melanoma cells. Described as above. It counts as cell-based. The conditions noted are these: Homo sapiens, A-375; 48 hours. As for the experimental part:
as §3, §1, §4

The subject of test [4] is HeLa cervical carcinoma cells. Described as above. It counts as cell-based. The settings on record: Homo sapiens, 48 hours. The procedure: as §3, §1, §4
The test system of test [5] is Jurkat T-cell leukemia cells. The description is as above. It counts as cell-based. The conditions noted are these: Homo sapiens, 48 hours. As for the experimental part: as §3, §1, §4
The subject of test [6] is MEK1-induced AP-1 promoter activity. Nature of the test: AP-1 promoter luciferase assay, HeLa cells expressing active MEK1 mutant. It counts as cell-based. The settings on record: Homo sapiens, 4 hours, read-out: IC50 inhibition of MEK1-induced AP-1 promoter activity. As for the experimental part:
FIG. 4. Compound SF-3-026 and analogs inhibit SRE and AP-1 transcription factor function. (a) HeLa cells were transfected with constructs containing SRE or AP-1 promoters driving luciferase expression and then stimulated with EGF in the presence or absence of SF-3-026 for 4 hours followed by measurements of luciferase activity. Cells treated with U0126 were used as a positive inhibitor control. (b and c) HeLa cells were prepared and treated as in (a) with the indicated concentrations of SF-3-026 or analogs for 4 hours followed by the measurement of luciferase activity regulated by the SRE (b) or AP-1 (c) promoters. Data in (b and c) were normalized to EGF-only treatment and represent the mean and standard deviation from three independent experiments. (d) Compound SF-3-026 and analogs inhibit MEK1-induced AP-1 transcription factor function. HeLa cells were transfected with the AP-1 promoter construct and a constitutively active MEK1 mutant in the presence (10 μM) or absence of the MEK1/2 inhibitor (U0126) or an ATP-competitive ERK inhibitor (ERKi) for 4 hours followed by measurements of luciferase activity. (e) Cells expressing the AP-1 promoter and an active MEK-1 construct were treated with the indicated concentrations of SF-3-026 or analogs for 4 hours followed by the measurement of luciferase activity. Data in (e) were normalized to active MEK1-only treatment and represent the mean and standard deviation from three independent experiments.
HeLa cells were seeded in 24-well plates (40,000 cells/well) and incubated 18 hours to achieve ˜60-70% confluent. Cells were transfected with activator protein-1 (pAP1(PMA)-TA-Luc; Clontech) or the serum response element (pGL4.33-SRE; Promega) luciferase reporter plasmids (250 ng/well) using Lipofectamine™ (Invitrogen). After 16 hours, cells were pre-treated with varying amounts of compounds as indicated for 20 minutes, followed by stimulation with EGF (25 ng/mL) for 4.5 hr. In some experiments, cells transfected with the pAP1(PMA)-TA-Luc promoter and a constitutively active MEK1 mutant cDNA were treated with varying amounts of compounds during the last 4 hours of incubation. The luciferase activity in the cell extracts was determined with a Dual Luciferase Assay System (Promega) according to the manufacturer's instructions. Luciferase activities were monitored with a Lumat LB 9507 luminometer (Berthold Technology) and data were normalized to the amount of protein in each sample. […]

The test system of test [7] is A375 melanoma cells. The test is described as follows: Caspase 3/7 Glo Assay. The conditions noted are these: varying doses, 24 hours. It counts as cell-based. As for the experimental part:
FIG. 6. SF-3-030 induces growth inhibition and apoptosis in A375 melanoma cells. A375 were seeded in a 96-well plate and incubated for 18-20 hours. Cells were treated with varying concentrations of SF-3-030 and allowed to incubate for an additional 24 hours. Cell viability was measured using the fluorescent Cell Titer Blue Assay and caspase 3/7 activity was measured using the luminescent Caspase 3/7 Glo Assay. Data represent the average of two experiments performed in duplicate.
as §1, §2

Sequence of ERK2 (P63086 whole entry): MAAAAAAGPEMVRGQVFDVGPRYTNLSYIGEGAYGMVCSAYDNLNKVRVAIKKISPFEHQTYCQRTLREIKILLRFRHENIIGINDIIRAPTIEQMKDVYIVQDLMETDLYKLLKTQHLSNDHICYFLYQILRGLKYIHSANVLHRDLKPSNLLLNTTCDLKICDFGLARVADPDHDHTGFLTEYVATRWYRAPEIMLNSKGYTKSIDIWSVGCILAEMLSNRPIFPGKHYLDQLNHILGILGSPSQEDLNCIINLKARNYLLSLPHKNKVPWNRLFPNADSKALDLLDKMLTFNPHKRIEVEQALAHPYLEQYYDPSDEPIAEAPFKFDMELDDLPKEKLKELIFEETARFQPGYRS

For the molecule `CCOc1ccc(/C=C2\SC(=O)N(CCNc3nc(Cl)nc(Cl)n3)C2=O)cc1` [SF-2-054], the “affinity (site 1 on ERK2)” value on ERK2 was “high nM affinity”. In the test with A375 melanoma cells [1], the “effect on A375 cell proliferation” value was “selective inhibition of A375 cells”.

Regarding `O=S1(=O)C=CC(OS(=O)(=O)c2ccc3c(c2)CC=CC3)C1` (centres unmarked) [SF-3-030], in [2], the “inhibition of EGF-induced c-Fos, Fra1, and FosB expression” value is on record as “higher potency”. The results for the pIC50 (in the test with AP-1 promoter; in test [6]) were over 5.00 and 5.00 to 5.30, respectively. The “caspase 3/7 activity in HeLa cells” value with HeLa cells is “did not show increased caspase 3/7 activity”. Also, the GI50 in the test on RPMI7951 melanoma cells was 4.6 µM; in the test on A375 melanoma cells [3] it was 7.1 µM; in [4], 29 µM; in test [5], over 50 µM. For the same molecule, the “caspase 3/7 activity in A375 cells” value in the test on A375 melanoma cells [7] is “dose dependent increase”.
